Structures can show the parent of a compound that is named as a salt. Where two headings read alike, the source gives them in different places.
Target: MELK (Homo sapiens, UniProt Q14680)
Experiment: Kinase assay: MELK activity, phosphorylation of FITC-labeled histone H3 peptide measured by IMAP fluorescence polarization
Assay type: biochemical
Conditions: read-out: IC50 (μM) (kinase assay)
Protocol: MELK activity was determined in the presence or absence of compounds using fluorescein isothiocyanate-labeled (FITC-labeled) histone H3 peptide as a substrate. […] Test compounds were dissolved in DMSO at 12.5 mM and then serially diluted as the DMSO concentration in the assays to be 1%. […] The reaction was stopped by the addition of three fold assay volume of progressive binding solution. Following 0.5 hour incubation at room temperature, fluorescence polarization was measured by Wallac EnVision 2103 multilabel reader (PerkinElmer).

[1] = MELK kinase assay, IMAP fluorescence polarization, 50 micro-M ATP

Sequence of MELK (Q14680 whole entry, looked up): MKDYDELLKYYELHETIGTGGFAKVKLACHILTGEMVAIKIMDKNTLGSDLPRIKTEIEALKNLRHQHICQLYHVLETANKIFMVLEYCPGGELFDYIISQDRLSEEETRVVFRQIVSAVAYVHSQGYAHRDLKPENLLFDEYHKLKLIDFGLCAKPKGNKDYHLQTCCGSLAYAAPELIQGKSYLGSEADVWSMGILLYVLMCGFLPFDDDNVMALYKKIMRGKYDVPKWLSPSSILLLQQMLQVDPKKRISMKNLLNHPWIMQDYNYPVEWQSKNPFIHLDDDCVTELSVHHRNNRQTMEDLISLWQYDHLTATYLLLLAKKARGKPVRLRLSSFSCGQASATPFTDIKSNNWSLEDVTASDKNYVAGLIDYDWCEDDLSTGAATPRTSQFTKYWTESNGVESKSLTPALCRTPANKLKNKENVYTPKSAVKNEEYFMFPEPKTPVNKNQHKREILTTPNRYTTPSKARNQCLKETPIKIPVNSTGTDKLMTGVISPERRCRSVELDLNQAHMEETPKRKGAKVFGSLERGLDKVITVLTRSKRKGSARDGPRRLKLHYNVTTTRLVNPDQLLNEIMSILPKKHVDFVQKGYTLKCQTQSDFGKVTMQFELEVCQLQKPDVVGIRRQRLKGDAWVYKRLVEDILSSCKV

O=C(c1cnc2ccc(-c3cc(Cl)c(O)c(Cl)c3)cc2c1Nc1ccc(CN2CCCC2)cc1)C1CC1 [Example 366, Cyclopropyl{6-(3,5-dichloro-4-hydroxyphenyl)-4-[4-(pyrrolidin-1-ylmethyl)phenylamino]quinolin-3-yl}methanone]
IC50 [1]: 0.15 µM

CC(=O)c1cnc2ccc(-c3ccc4nc[nH]c4c3)cc2c1Nc1cccc(CCN2CCCC2)c1 [Example 896, 1-(6-(1H-benzo[d]imidazol-6-yl)-4-((3-(2-(pyrrolidin-1-yl)ethyl)phenyl)amino)quinolin-3-yl)ethanone hydrochloride]
IC50 [1]: 0.22 µM

CC(=O)c1cnc2ccc(-c3ccc4nc[nH]c4c3)cc2c1Nc1ccc(N2CCC(N(C)C)C2)nc1 (stereo not shown) [Example 905, 1-(6-(1H-benzo[d]imidazol-6-yl)-4-((6-(3-(dimethylamino)pyrrolidin-1-yl)pyridin-3-yl)amino)quinolin-3-yl) ethanone hydrochloride]
IC50 [1]: 0.11 µM

CN(C)C[C@H]1CC[C@H](Nc2c(C(=O)C3CC3)cnc3cc(C(F)(F)F)c(-c4cc(F)c(O)c(Cl)c4)cc23)CC1 [Example 841]
IC50 [1]: 0.77 µM

CC(=O)c1c(C)nc2ccc(-c3cc(F)c(O)c(Cl)c3)cc2c1N[C@H]1CC[C@H](CN(C)C)CC1 [Example 834, 1-(6-(3-chloro-5-fluoro-4-hydroxy-phenyl)-4-(1R,4R)-4-((dimethylamino)methyl)cyclohexylamino)-2-methyl-quinolin-3-yl)ethanone hydrochloride]
IC50 [1]: 0.82 µM

CC(=O)c1cnc2cc(C)c(-c3cc(F)c(O)c(Cl)c3)cc2c1Nc1ccc(N2CCN(C)CC2)nc1 [Example 856, 1-(6-(3-chloro-5-fluoro-4-hydroxy-phenyl)-7-methyl-4-((6-(4-methyl-piperazin-1-yl)pyridin-3-yl)amino)quinolin-3-yl)ethanone hydrochloride]
IC50 [1]: 0.46 µM

CN(C)[C@H]1CC[C@H](Nc2c(C(=O)C3CC3)cnc3ccc(-c4cc(Cl)c(O)c(Cl)c4)cc23)CC1 [Example 941, cyclopropyl(6-(3,5-dichloro-4-hydroxyphenyl)-4-((1R,4R)-4-(dimethylamino)cyclohexylamino)quinolin-3-yl)methanone, dihydrobromide]
IC50 [1]: 0.0016 µM

CC(=O)c1cnc2ccc(-c3ccncc3)cc2c1N[C@H]1CC[C@H](CN(C)C)CC1 [Example 908, 1-(4-((1R,4R)-4-((dimethylamino)methyl)cyclohexyl)amino)-6-(pyridin-4-yl)quinolin-3-yl)ethanone hydrochloride]
IC50 [1]: 0.23 µM

CC(=O)c1cnc2cc(C)c(-c3cc(F)c(O)c(Cl)c3)cc2c1N[C@H]1CC[C@H](CN(C)C)CC1 [Example 859, 1-(6-(3-chloro-5-fluoro-4-hydroxy-phenyl)-4-((1R,4R)-4-((dimethylamino)methyl)cyclohexyl)amino)-7-methyl-quinolin-3-yl)ethanone hydrochloride]
IC50 [1]: 0.84 µM

CC(=O)c1c(C)nc2ccc(-c3cc(Cl)c(O)c(Cl)c3)cc2c1N[C@H]1CC[C@H](CN(C)C)CC1 [Example 833, 1-(6-(3,5-dichloro-4-hydroxyphenyl)-4-(1R,4R)-4-((dimethylamino)methyl)cyclohexylamino)-2-methylquinolin-3-yl)ethanone hydrochloride]
IC50 [1]: 0.17 µM

CC(=O)c1c(C)nc2ccc(-c3cc(F)c(O)c(Cl)c3)cc2c1Nc1ccc(N2CCN(C)CC2)nc1 [Example 837, 1-(6-(3-chloro-5-fluoro-4-hydroxy-phenyl)-2-methyl-4-(6-(4-methyl-piperazin-1-yl)pyridin-3-ylamino)quinolin-3-yl)ethanone hydrochloride]
IC50 [1]: 0.54 µM

CC(=O)c1cnc2ccc(-c3cc(Cl)c(O)c(Cl)c3)cc2c1N[C@H]1CC[C@H](N)CC1 [Example 939, 1-(4-((1R,4R)-4-aminocyclohexylamino)-6-(3,5-dichloro-4-hydroxyphenyl)quinolin-3-yl)ethanone, hydrochloride]
IC50 [1]: 0.0034 µM

CC(=O)c1cnc2ccc(-c3cc(F)c(O)c(Cl)c3)cc2c1N[C@H]1CC[C@H](CN(C)C)CC1 [Example 378, 1-(6-(3-chloro-5-fluoro-4-hydroxyphenyl)-4-((trans)-4-((dimethylamino)methyl)cyclohexylamino)quinolin-3-yl) ethanone]
IC50 [1]: 0.0061 µM

CN(C)[C@H]1CC[C@H](Nc2c(C(=O)C3CC3)cnc3ccc(-c4cc(F)c(O)c(Cl)c4)cc23)CC1 [Example 264, (6-(3-chloro-5-fluoro-4-hydroxyphenyl)-4-((1R,4R)-4-(dimethylamino)cyclohexylamino)quinolin-3-yl)(cyclopropyl)methanone]
IC50 [1]: 0.0029 µM

COc1cc(-c2ccc3ncc(C(C)=O)c(N[C@H]4CC[C@H](N)CC4)c3c2)cc(Cl)c1O [Example 940, 1-(4-((1R,4R)-4-aminocyclohexylamino)-6-(3-chloro-4-hydroxy-5-methoxyphenyl)quinolin-3-yl)ethanone, hydrochloride]
IC50 [1]: 0.0012 µM

CC(C)C(=O)c1cnc2ccc(-c3cc(F)c(O)c(F)c3)cc2c1N[C@H]1CC[C@H](N)CC1 [Example 938, 1-(4-((1R,4R)-4-aminocyclohexylamino)-6-(3,5-difluoro-4-hydroxyphenyl)quinolin-3-yl)-2-methylpropan-1-one, hydrochloride]
IC50 [1]: 0.017 µM

CN(C)C[C@H]1CC[C@H](Nc2c(C(=O)C3CC3)cnc3ccc(-c4cc(Cl)c(O)c(Cl)c4)cc23)CC1 [Example 324, cyclopropyl(6-(3,5-dichloro-4-hydroxyphenyl)-4-(trans-4-((dimethylamino)methyl)cyclohexylamino)quinolin-3-yl)methanone]
IC50 [1]: 0.00085 µM

CC(=O)c1cnc2cc(C)c(-c3cc(Cl)c(O)c(Cl)c3)cc2c1N[C@H]1CC[C@H](CN(C)C)CC1 [Example 857]
IC50 [1]: 3.4 µM

CC(=O)c1cnc2cc(C)c(-c3cc(Cl)c(O)c(Cl)c3)cc2c1Nc1ccc(CN(C)C)cc1 [Example 847, 1-(6-(3,5-dichloro-4-hydroxyphenyl)-4-(4-((dimethylamino)methyl)phenyl-amino)-7-methylquinolin-3-yl) ethanone hydrochloride]
IC50 [1]: 0.55 µM

CC(C)C(=O)c1cnc2ccc(-c3cc(F)c(O)c(Cl)c3)cc2c1N[C@H]1CC[C@H](N)CC1 [Example 937, 1-(4-((1R,4R)-4-aminocyclohexylamino)-6-(3-chloro-5-fluoro-4-hydroxyphenyl)quinolin-3-yl)-2-methylpropan-1-one, dihydrochloride]
IC50 [1]: 0.0054 µM

CC(=O)c1cnc2ccc(-c3ccc(-c4ccc(O)cc4)cc3)cc2c1Nc1cccc(CCN2CCCC2)c1 [Example 888, 1-(6-(4′-hydroxy-[1,1′-biphenyl]-4-yl)-4-((3-(2-(pyrrolidin-1-yl)ethyl)phenyl)amino)quinolin-3-yl) ethanone hydrochloride]
IC50 [1]: 3.4 µM

CN1CCN(c2ccc(Nc3c(C(=O)C4CC4)cnc4cc(C(F)(F)F)c(-c5cc(Cl)c(O)c(Cl)c5)cc34)cn2)CC1 [Example 839, cyclopropyl(6-(3,5-dichloro-4-hydroxy-phenyl)-4-(6-(4-methylpiperazin-1-yl)pyridin-3-ylamino)-7-(trifluoro-methyl)quinolin-3-yl)methanone]
IC50 [1]: 4.2 µM

CC(=O)c1cnc2ccc(-c3cc(Cl)c(O)c(Cl)c3)cc2c1Nc1ccc(CN(C)C)cc1 [Example 942, 1-(6-(3,5-dichloro-4-hydroxyphenyl)-4-(4-((dimethylamino)methyl)phenylamino)quinolin-3-yl)ethanone]
IC50 [1]: 0.0022 µM

COc1ccc2c(c1)CN(c1ccc3ncc(C(C)=O)c(N[C@H]4CC[C@H](CN(C)C)CC4)c3c1)C2=O [Example 933]
IC50 [1]: 1.2 µM

CN(CCO)C[C@H]1CC[C@H](Nc2c(C(=O)C3CC3)cnc3ccc(-c4cc(Cl)c(O)c(Cl)c4)cc23)CC1 [Example 635, cyclopropyl(6-(3,5-dichloro-4-hydroxyphenyl)-4-(1R,4R)-4-(((2-hydroxyethyl)(methyl)amino)methyl)cyclohexylamino)quinolin-3-yl)methanone hydrochloride]
IC50 (hydrochloride): 0.00074 µM

CN1CCN(c2ccc(Nc3c(C(=O)C4CC4)cnc4cc(C(F)(F)F)c(-c5cc(F)c(O)c(Cl)c5)cc34)cn2)CC1 [Example 840, (6-(3-chloro-5-fluoro-4-hydroxyphenyl)-4-(6-(4-methylpiperazin-1-yl)pyridin-3-ylamino)-7-(trifluoromethyl)quinolin-3-yl)(cyclopropyl)methanone]
IC50 [1]: 3.1 µM

CC(=O)c1cnc2ccc(-c3cc(Cl)c(O)c(Cl)c3)cc2c1Nc1ccc(CN(C)C)cc1 [Example 374]
IC50 [1]: 0.0066 µM

CC(=O)c1cnc2ccc(-c3cc(F)c(O)c(Cl)c3)cc2c1N[C@H]1CC[C@H](CN(C)C)CC1 [Example 943, 1-(6-(3-chloro-5-fluoro-4-hydroxyphenyl)-4-((trans-4-((dimethylamino)methyl)cyclohexyl)amino)quinolin-3-yl)ethanone dihydrochloride]
IC50 (MELK kinase assay, IMAP fluorescence polarization, 50 micro-M ATP, dihydrochloride): 0.004 µM

CC(=O)c1cnc2ccc(-c3cc(Cl)c(O)c(Cl)c3)cc2c1N[C@H]1CC[C@H](CN(C)C)CC1 [Example 944, 1-{6-(3,5-Dichloro-4-hydroxyphenyl)-4-[trans-4-((dimethylamino)methyl)cyclohexylamino]quinolin-3-yl}ethanone hydrochloride]
IC50 (MELK kinase assay, IMAP fluorescence polarization, 50 micro-M ATP, hydrochloride): 0.00094 µM

N[C@H]1CC[C@H](Nc2c(C(=O)C3CC3)cnc3ccc(-c4cc(F)c(O)c(Cl)c4)cc23)CC1 [Example 936, (4-((1R,4R)-4-aminocyclohexylamino)-6-(3-chloro-5-fluoro-4-hydroxyphenyl)quinolin-3-yl)(cyclopropyl)methanone, hydrochloride]
IC50 [1]: 0.0019 µM

CC(=O)c1cnc2cc(C)c(-c3cc(F)c(O)c(Cl)c3)cc2c1Nc1ccc(CN(C)C)cc1 [Example 858, 1-(6-(3-chloro-5-fluoro-4-hydroxy-phenyl)-4-((4-((dimethylamino)methyl)phenyl)amino)-7-methylquinolin-3-yl)ethanone hydrochloride]
IC50 [1]: 0.2 µM

From patent publication US9120749B2, “Quinoline derivatives and MELK inhibitors containing the same” (ONCOTHERAPY SCIENCE, INC., priority 2010, dated 2015)
